PubChem BioAssay AID602296 (Broad Institute, 2012)
Results filed as inconclusive are left out. Calls of active or inactive are those of the source.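 The calls were made as follows: active = fitted activation curve crossing 40% at a concentration no higher than the sample's top valid tested dose; inconclusive = flat fitted curve at 30% to 70% activation, or poor curve fit; inactive = signal decrease, flat curve within 30%, or the rest.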

test system: NIH3T3-HGL HSF-1 response element luciferase, 48 h; assay: sustained heat shock response element induction – cell-based, mouse, luciferase, cherry-pick, dose, confirmation (AID 602296);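 also: test compounds applied by themselves with no MG132 co-treatment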

CCOC(=O)c1cccc(NC(=O)Cn2c(CC(=O)NC)nc3ccccc32)c1 was tested. Which AC40 did it give?
The AC40 was > 26 µM (inactive).

How did the AC40 turn out when O=C(NNc1c(Cl)cccc1Cl)C1CCC1 was run?
The AC40 was 23.5 µM.

How did the AC40 turn out when CC1(c2cccs2)CC(c2cccs2)=C(C#N)C(=O)N1 (stereo not given) was run?
The AC40 was > 26 µM (inactive).

How did the AC40 turn out when CC(C)[C@H](NC(=O)OC(C)(C)C)c1nnc(SCC(=O)Nc2ccc(Br)cc2)o1 was run?
The AC40 was > 26 µM (inactive).

How did the AC40 turn out when COc1ccccc1CN1CC(C(=O)NCCc2ncccc2C)CCC1=O (stereo not given) was run?
The AC40 was 24.8 µM.

With CN(/C(=N\S(=O)(=O)c1ccccc1)c1ccccc1)c1ccc(O)cc1 as the compound, how does the AC40 read?
Its AC40 is > 26 µM (inactive).

CCN(CCCNC(=O)CNC(=O)c1nn(-c2ccc(OC)cc2OC)c(=O)c2ccccc12)c1cccc(C)c1 was tested. Which AC40 did it give?
Its AC40 is > 26 µM (inactive).

How did the AC40 turn out when O=C1NC(=O)[C@]2(Cc3ccccc3N3CCN(c4ccccc4)CC32)C(=O)N1Cc1ccccc1 (stereo not given in full) was run?
Its AC40 is 2.51 µM.

O=C(c1ccccc1Br)N1CCN(c2ccccc2)CC1 was tested. Which AC40 did it give?
The AC40 was > 26 µM (inactive).

For COc1ccccc1/C=C1/SC(=S)N(C(C)C(=O)NC2C=CS(=O)(=O)C2)C1=O (stereo not given), which AC40 is on record?
The AC40 was > 26 µM (inactive).

With O=C(Nc1ccc2c(c1)C(=O)OC2)c1ccc(Cl)cc1 as the compound, how does the AC40 read?
The AC40 was 12.2 µM.

Which AC40 does the source give for O=C(CSc1nnc(-c2ccc(F)cc2)c2ccccc12)Nc1ccccc1 here?
The AC40 was 18.7 µM.

With Cc1nc2ccccc2nc(C)c1=NOCc1ccccc1Cl as the compound, how does the AC40 read?
Its AC40 is 3.97 µM.

For O=C1C=C(c2ccccc2)CC(/C=C/c2ccccc2)C1 (stereo not given), which AC40 is on record?
The AC40 was 18 µM.

Which AC40 does the source give for Cc1cc(C)cc(NC(=O)CN(C)S(=O)(=O)c2cnc[nH]2)c1 here?
Its AC40 is > 26 µM (inactive).

With O=[N+]([O-])c1ccc(-c2csc(Nc3ccccc3)[n+]2Cc2ccccc2)cc1 as the compound, how does the AC40 read?
Its AC40 is 10.9 µM.

How did the AC40 turn out when O=C(OCc1csc(-c2ccccc2)n1)c1cccs1 was run?
Its AC40 is 0.901 µM.

CC(C)(CN)CC(=O)O was tested. Which AC40 did it give?
The AC40 was > 26 µM (inactive).

Which AC40 does the source give for O=Nc1c(-c2ccccc2)[nH]n(-c2ccccc2)c1=O here?
Its AC40 is 20.7 µM.

Which AC40 does the source give for Cn1c(C(=O)OC(C(=O)NC(C)(C)C)c2cccnc2)cc2sccc21 (stereo not given) here?
Its AC40 is > 26 µM (inactive).

Cc1ccc(N2Cc3ccccc3OC(C)C2=O)cc1 (stereo not given) was tested. Which AC40 did it give?
Its AC40 is > 26 µM (inactive).

For CC(C)(C)NC(=O)NC(=O)CN1CC=C(c2ccccc2)CC1, which AC40 is on record?
Its AC40 is > 26 µM (inactive).

CNc1nc(-c2ccccc2)cc(C)c1S(C)(=O)=O was tested. Which AC40 did it give?
The AC40 was > 26 µM (inactive).

COCCCNC(=O)c1ccc(NS(C)(=O)=O)cc1 was tested. Which AC40 did it give?
The AC40 was > 26 µM (inactive).

For CC(=O)N1N=C(c2ccccc2)CC1c1ccccc1[N+](=O)[O-] (stereo not given), which AC40 is on record?
The AC40 was 16 µM.

With CC(C)(C)c1cc(NC(=O)CCSc2nnc3ccccn23)cc(C(C)(C)C)c1 as the compound, how does the AC40 read?
The AC40 was > 26 µM (inactive).

For Cc1ccc(CSc2nc3ccccc3c(=O)n2CCCC(=O)NCc2ccco2)cc1, which AC40 is on record?
The AC40 was > 26 µM (inactive).

With N#Cc1ccccc1COC(=O)c1cc(=O)c2ccccc2o1 as the compound, how does the AC40 read?
The AC40 was 26 µM.

Which AC40 does the source give for CC(OC(=O)/C=C/c1ccc2ccccc2n1)C(=O)NCc1ccccc1 (stereo not given) here?
The AC40 was 25.9 µM.

For COc1ccc(C(=O)CC(=O)C(=O)Nc2cc(OC)c(OC)c(OC)c2)cc1, which AC40 is on record?
Its AC40 is > 26 µM (inactive).

Which AC40 does the source give for CCCc1nc(SCC(=O)Nc2cc(C)on2)c2ccccc2n1 here?
The AC40 was > 26 µM (inactive).

O=C(CC1(O)C(=O)Nc2ccc(Br)cc21)c1ccc2c(c1)OCO2 (stereo not given) was tested. Which AC40 did it give?
Its AC40 is > 26 µM (inactive).

How did the AC40 turn out when CCC1(C)N=C(N)Nc2nc3cc(C)c(C)cc3n21 (stereo not given) was run?
The AC40 was 24.5 µM.

With Cn1c(CCC(=O)OCC(=O)Nc2ccc(Oc3ccccc3)cc2)nc(=O)c2ccccc21 as the compound, how does the AC40 read?
Its AC40 is > 26 µM (inactive).

With CC1=CC(=O)C=C(C)C1=NOC(=O)/C=C\c1ccccc1 as the compound, how does the AC40 read?
The AC40 was > 26 µM (inactive).

How did the AC40 turn out when Cn1cc(C=O)c(-c2ccc3c(c2)OCCCO3)n1 was run?
Its AC40 is 3.77 µM.

With O=C(CSc1nc2ccccc2c2nc3ccccc3n12)NCc1ccco1 as the compound, how does the AC40 read?
Its AC40 is 10.1 µM.

For Cc1nc2ncnn2c(C)c1CCC(=O)NCc1ccco1, which AC40 is on record?
The AC40 was > 26 µM (inactive).

How did the AC40 turn out when CC(CC#CCN1CCOCC1)OCCC#N (stereo not given) was run?
The AC40 was > 26 µM (inactive).

With CCc1cccc(NC(=O)c2cccc(S(=O)(=O)N3CCN(C)CC3)c2)c1 as the compound, how does the AC40 read?
Its AC40 is > 26 µM (inactive).

How did the AC40 turn out when CSc1c(C#N)c(N)nc2sc(C(=O)c3ccccc3)c(N)c12 was run?
Its AC40 is 5.48 µM.

Nc1nnc(SCc2c(F)cccc2Cl)s1 was tested. Which AC40 did it give?
The AC40 was 14.4 µM.

For CC(C)c1ccc(C2NC(=O)c3ccccc3O2)cc1 (stereo not given), which AC40 is on record?
The AC40 was 5.17 µM.

Cc1cc(-c2nc3ncccc3o2)ccc1NC(=S)NC(=O)C(C)C was tested. Which AC40 did it give?
Its AC40 is 7.32 µM.

Which AC40 does the source give for C=CCn1c(SCC(=O)Nc2cc(NC(C)=O)ccc2OC)nnc1-c1cccnc1 here?
Its AC40 is > 26 µM (inactive).

How did the AC40 turn out when O=C1NC(=S)S/C1=C/c1ccc(OC(=O)c2ccco2)cc1 was run?
The AC40 was 22.5 µM.

How did the AC40 turn out when COc1ccc(CCNc2ncnc3c2c(C)c(C)n3CCO)cc1OC was run?
The AC40 was > 26 µM (inactive).

Which AC40 does the source give for Cc1cc(C)n2nc(C(=O)N/N=C/c3c4ccccc4cc4ccccc34)nc2n1 here?
The AC40 was > 12 µM (inactive).

How did the AC40 turn out when O=C(CCS(=O)(=O)c1ccccc1)Nc1ccccn1 was run?
Its AC40 is > 26 µM (inactive).

O=c1[nH]c2c(s1)C=Nc1ccccc1N2 was tested. Which AC40 did it give?
The AC40 was 4.98 µM.
